Several values for one entry are separate records, joined by “and”; a condition that tells them apart may be missing. Equal entries are not always repeated.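 Tested at 5 concentrations; 48 h exposure; 96-well plates; endpoints linearly interpolated, else capped at highest concentration. Here, GI50 denotes the concentration required for 50% inhibition of growth. TGI: total growth inhibition.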
Assays:
Assay in all cases: NCI tumour cell line growth inhibition, 48 h
[1] = tested on: DLD-1 colon
[2] = tested on: DMS 273 small cell lung
[3] = tested on: RXF-631 renal
[4] = tested on: SNB-78 CNS
[5] = tested on: XF 498 CNS
[6] = tested on: MCF7 breast
[7] = tested on: MDA-N
[8] = tested on: P388 leukemia
[9] = tested on: P388/ADR leukemia
[10] = tested on: SN12K1 renal
[11] = tested on: T-47D breast
[12] = tested on: DU-145 prostate

Structure (SMILES)	TGI [1]	TGI [2]	TGI [3]	TGI [4]	TGI [5]	GI50 [1]	GI50 [2]	TGI [6]	TGI [7]	TGI [8]	TGI [9]	TGI [10]	GI50 [4]	TGI [11]	GI50 [5]	TGI [12]
O=[P+](O)c1cccnc1	> 100 µM	> 100 µM	> 100 µM	> 100 µM	> 100 µM	–	–	–	–	–	–	–	–	–	–	–
Cc1cc2c(C)nn(Cc3ccccc3Cl)c2c(C#N)c1C	> 100 µM	> 100 µM	> 100 µM	–	> 100 µM	–	–	–	–	–	–	–	–	–	–	–
O=C(CC(=O)N1N=C(c2ccccc2)C(N=Nc2ccccc2Cl)C1=O)Nc1ccccc1Cl (stereo not given)	> 100 µM	> 100 µM	> 100 µM	> 100 µM	51.1 µM	–	–	–	–	–	–	–	–	–	–	–
O=Cc1cn(S(=O)(=O)c2ccccc2)c2ccccc12	> 100 µM	–	> 100 µM	> 100 µM	> 100 µM	–	–	–	–	–	–	–	–	–	–	–
C/C(CC(=O)Nc1ccc([N+](=O)[O-])cc1)=N\Nc1ccc([N+](=O)[O-])cc1[N+](=O)[O-]	> 100 µM	> 100 µM	> 100 µM	> 100 µM	> 100 µM	–	–	–	–	–	–	–	–	–	–	–
C=CCn1c(=O)c(C(=O)NC(=O)OCC)cn(C2CCCCC2)c1=O	> 100 µM	> 100 µM	> 100 µM	> 100 µM	> 100 µM	–	–	–	–	–	–	–	–	–	–	–
COC1C(C)OC(OC2CC(C)(O)Cc3cc4c(c(O)c32)C(=O)c2c(O)cc3c(c2C4=O)OC2OC3(C)C(O)C(N(C)C)C2O)C(OC)C1(C)OC (stereo not given)	5.12 µM and 3.91 µM	0.557 µM and 0.137 µM	7.14 µM	1.78 µM and 2.57 µM	0.292 µM and 0.0483 µM	0.183 µM	0.0298 µM	0.413 µM	0.00187 µM	0.51 µM	7.1 µM	0.06 µM	0.00657 µM and 0.0327 µM	0.000313 µM	0.03 µM	–
CC(O)c1ccc(C(O)/C(=N\NC(=O)c2ccncc2)c2nc3ccc([N+](=O)[O-])cc3[nH]c2=O)cc1 (stereo not given)	> 100 µM	> 100 µM	> 100 µM	> 100 µM	> 100 µM	–	–	–	–	–	–	–	–	–	–	–
COc1ccc(NC(=O)C2=CC(=O)c3ccc(O)cc3C2=O)c(OC)c1	> 100 µM	–	> 100 µM	> 100 µM	> 100 µM	–	–	–	–	–	–	–	–	–	–	–
CCCCC1N=CNc2c1ccc1c2[nH]c2ccccc21 (stereo not given)	6.3 µM	3.38 µM	5.97 µM	38.6 µM	3.4 µM	–	–	–	3.28 µM	–	–	–	–	3.2 µM	–	5.72 µM
COc1cc([C@@H]2c3cc4c(cc3[C@@H](NC(=O)c3ccc(OC(C)=O)cc3)C3COC(=O)[C@@H]32)OCO4)cc(OC)c1O (stereo not given in full)	26 µM	12.4 µM	17.3 µM	> 100 µM	6.96 µM	–	–	–	–	–	–	–	–	–	–	–
c1ccc(N2N=NC3C4CC(C5c6ccccc6C45)C32)cc1 (stereo not given)	> 100 µM	> 100 µM	> 100 µM	> 100 µM	38.5 µM	–	–	–	–	–	–	–	–	–	–	–

Reference: PubChem BioAssay (NCI)
